How the values were obtained:
Assay in all cases: relative viability (nuclei count vs DMSO), 5 days (fraction); higher = more cells survive
MLN4924 + Dasatinib = compound: NS(=O)(=O)OC[C@@H]1C[C@@H](n2ccc3c(N[C@H]4CCc5ccccc54)ncnc32)C[C@@H]1O [MLN4924] + Cc1nc(Nc2ncc(C(=O)Nc3c(C)cccc3Cl)s2)cc(N2CCN(CCO)CC2)n1 [Dasatinib] (partner 0.075 µM)
In short: (§1)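 Relative viability equals treated-well nuclei counts divided by vehicle-well nuclei counts. Counts came from 4× images of lung cancer cell lines grown in 1536-well plates for 5 days after pin-tool dosing on the day after seeding. Dosing used one drug alone or a fixed anchor-drug dose plus five library-drug doses (not always all listed) in √10 steps, and values are medians of duplicate plates.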

GSK126 + Vorinostat = compound: CC[C@H](C)N1C=C(C2=C(C=C(C=C21)C3=CN=C(C=C3)N4CCNCC4)C(=O)NCC5=C(C=C(NC5=O)C)C)C [GSK126] + O=C(CCCCCCC(=O)Nc1ccccc1)NO [Vorinostat] (partner 1 µM)
In short: as §1

Carboplatin + Alpelisib = compound: C1CC(C1)(C(=O)O)C(=O)O.[NH2-].[NH2-].[Pt+2] [Carboplatin] + Cc1nc(NC(=O)N2CCC[C@H]2C(N)=O)sc1-c1ccnc(C(C)(C)C(F)(F)F)c1 [Alpelisib] (partner 2 µM)
In short: as §1

GSK126 + Trametinib = compound: CC[C@H](C)N1C=C(C2=C(C=C(C=C21)C3=CN=C(C=C3)N4CCNCC4)C(=O)NCC5=C(C=C(NC5=O)C)C)C [GSK126] + CC(=O)Nc1cccc(-n2c(=O)n(C3CC3)c(=O)c3c(Nc4ccc(I)cc4F)n(C)c(=O)c(C)c32)c1 [Trametinib] (partner 0.02 µM)
In short: as §1

Cell Line	relative viability (MLN4924 + Dasatinib; first compound 0.04 µM)	relative viability (MLN4924 + Dasatinib; first compound 0.1265 µM)	relative viability (MLN4924 + Dasatinib; first compound 0.4 µM)	relative viability (MLN4924 + Dasatinib; first compound 1.265 µM)	relative viability (MLN4924 + Dasatinib; first compound 4 µM)	relative viability (GSK126 + Vorinostat; first compound 0.08 µM)	relative viability (GSK126 + Vorinostat; first compound 0.253 µM)	relative viability (GSK126 + Vorinostat; first compound 0.8 µM)	relative viability (GSK126 + Vorinostat; first compound 2.53 µM)	relative viability (GSK126 + Vorinostat; first compound 8 µM)	relative viability (Carboplatin + Alpelisib; first compound 0.08 µM)	relative viability (Carboplatin + Alpelisib; first compound 0.253 µM)	relative viability (Carboplatin + Alpelisib; first compound 0.8 µM)	relative viability (Carboplatin + Alpelisib; first compound 2.53 µM)	relative viability (Carboplatin + Alpelisib; first compound 8 µM)	relative viability (GSK126 + Trametinib; first compound 0.08 µM)	relative viability (GSK126 + Trametinib; first compound 0.253 µM)	relative viability (GSK126 + Trametinib; first compound 0.8 µM)	relative viability (GSK126 + Trametinib; first compound 2.53 µM)	relative viability (GSK126 + Trametinib; first compound 8 µM)
NCI-H1437	0.276	0.456	0.556	0.235	0.11	0.902	0.885	0.774	0.77	0.763	0.988	0.989	0.929	0.947	0.828	0.507	0.528	0.494	0.459	0.501
EMC-BAC-2	0.584	0.572	0.32	0.191	0.159	0.427	0.4	0.442	0.451	0.499	0.816	0.719	0.762	0.734	0.714	0.849	0.832	0.92	0.676	0.859
NCI-H520	0.216	0.225	0.253	0.171	0.173	0.761	0.739	0.656	0.745	0.87	0.894	1.06	0.897	0.908	0.737	0.748	0.665	0.563	0.807	0.817
NCI-H1993	0.622	0.524	0.557	0.491	0.51	0.921	0.779	0.79	1.02	1.1	0.663	0.745	0.643	0.62	0.678	0.517	0.525	0.448	0.54	0.467
HCC-827	0.483	0.608	0.771	0.265	0.187	0.893	0.929	0.798	0.925	0.919	1.07	0.962	0.9	0.944	0.893	0.478	0.496	0.54	0.635	0.531
NCI-H2087	0.742	0.574	0.533	0.126	0.0652	0.847	0.523	0.652	0.652	1.15	1.18	1.04	0.992	0.848	0.647	0.223	0.211	0.246	0.2	0.2
HARA	0.362	0.358	0.311	0.0814	0.0506	0.554	0.47	0.551	0.51	0.41	0.814	0.812	0.714	0.719	0.73	0.755	0.771	0.587	0.613	0.621
NCI-H2126	0.647	0.617	0.55	0.201	0.23	0.867	0.789	0.829	0.805	0.783	0.777	0.763	0.795	0.758	0.713	0.552	0.576	0.536	0.494	0.564
LCLC-103H	0.452	0.569	0.653	0.141	0.112	0.888	0.906	0.77	0.786	0.761	1.1	0.975	1.09	1	0.934	0.71	0.708	0.647	0.64	0.725
SK-LU-1	0.217	0.249	0.12	0.117	0.141	0.852	0.684	0.781	0.776	0.905	0.903	1.07	0.933	0.792	0.392	0.519	0.524	0.485	0.816	0.486
EKVX	0.588	0.261	0.471	0.193	0.238	0.778	0.659	0.708	0.687	0.574	0.908	0.877	0.743	0.783	0.87	0.377	0.446	0.354	0.362	0.268
HCC-366	0.67	0.702	0.967	0.627	0.0684	0.389	0.354	0.29	0.342	0.385	0.476	0.552	0.344	0.294	0.314	0.391	0.357	0.343	0.309	0.337
NCI-H1650	0.41	0.291	0.267	0.166	0.179	0.678	0.546	0.605	0.431	0.681	–	–	–	–	–	0.631	0.656	0.428	0.578	0.654
COR-L23	0.487	0.617	0.507	0.154	0.101	0.56	0.42	0.461	0.453	0.407	0.724	0.721	0.74	0.663	0.272	0.837	0.563	0.499	0.557	0.737
NCI-H647	0.235	0.195	0.113	0.0353	0.0361	0.724	0.61	0.614	0.592	0.687	1.23	1.14	1.23	1.12	0.771	0.55	0.461	0.381	0.44	0.413
LXF-289	0.215	0.203	0.251	0.0849	0.0735	0.8	0.832	0.718	0.787	0.707	1.05	1.12	1.01	0.975	0.995	0.66	0.665	0.7	0.611	0.693
